Measurements as given in a melting point compilation (Tetko et al.; mined from patent text by program, amines drawn as free bases though some values may be those of a salt).

Row | SMILES | melting point [°C]
1 | Cc1ccc(C(=O)Nc2nc(-c3ccccc3)c(-c3nc4ccccc4c(=O)n3-c3ccccc3C)s2)cc1 | > 275
2 | CCC1(O)CC(=O)OCc2c1cc1n(c2=O)Cc2c-1nc1ccccc1c2Cc1ccccc1 (stereo not given) | > 250
3 | CCn1ncc2c3onc(-c4ccc(Cl)cc4)c3cnc21 | 195 to 197
4 | Fc1ccc(-c2cc(SC(F)(F)C(F)F)[nH]c2-c2ccc(F)cc2)cc1 | 70.5 to 71
5 | CS(=O)(=O)c1cc(C(=O)O)cc(N=Cc2ccco2)c1Cl | 221
6 | CSc1c(C#N)nn(-c2c(Br)cc(C(F)(F)F)cc2Br)c1N | 211 to 214
7 | COC(=O)C1=C(C)Nc2ccccc2SC1c1cccc([N+](=O)[O-])c1 (stereo not given) | 140 to 142
8 | CCOC(=O)C(O)=Cc1cc(CCc2ccccc2)cnn1 | 94 to 95
9 | Cc1nc2ccc(OC3SCC(O)C(O)C3O)cc2s1 (stereo not given) | 184
10 | CC(=O)O[C@@H]1NC(=O)[C@H]1NC(=O)OCc1ccccc1 | 110 to 113
11 | O=C(CC(=O)C1CC1)c1cccnn1 | 85 to 87
12 | CCc1cccc(CC)c1N(CCl)C(=O)c1ccccc1 | 98 to 99
13 | CCOC(=O)Cc1cnn(CC)c1O | 107 to 108
14 | O=[N+]([O-])c1ccc(NCCNS(=O)(=O)c2ccccc2)cc1 | 171
15 | CCn1cc(C(=O)O)c(=O)c2cc(F)c(N3CC4CCCC3CN4)c(F)c21 (stereo not given) | 245 to 250
16 | O=S(=O)(Cl)c1ccc(F)c2nonc12 | 64 to 66
17 | CC(=O)c1cccc(SCCCc2cn(S(=O)(=O)N(C)C)cn2)c1 | 122 to 124
18 | CC(=O)SCC(Cc1ccccc1)C(=O)Nc1c(Cl)cccc1C(=O)O (stereo not given) | 123 to 127
19 | C=C1OC(=NN)C(c2ccccc2)C(=O)N1C(C)(C)C(=O)Nc1cc(Cl)cc(Cl)c1 (stereo not given) | 146 to 149
20 | O=C(/C=C1\CCc2ccc(F)cc21)NC1CC1 | 124 to 127

Row | SMILES | melting point [°C]
21 | CN(CCc1ccc([N+](=O)[O-])cc1)Cc1cc2cc([N+](=O)[O-])ccc2s1 | 76 to 78
22 | COc1cccc2c1C=C(C#N)CC2 | 66 to 68
23 | OC1(c2cccc(-c3ccccc3)c2)CN2CCC1CC2 (stereo not given) | 165 to 166
24 | O=C(O)C(=CNc1ccc(OCc2ccccc2)c(OCc2ccccc2)c1)C(=O)O | 73 to 76
25 | O=C1N(Cc2ccc(Cl)c(Cl)c2)C(=NCC(F)(F)F)SCN1c1ccccc1 | 99.1 to 99.6
26 | CCCCc1ccc(CCCCS(=O)(=O)Cc2cccc(/C=C/c3cccc(NC(=O)CC(CC)(CC)C(=O)O)c3)n2)cc1 | 155 to 157
27 | CCCC(c1ccccc1OCc1ccc(Cl)cc1Cl)n1ccnc1 (stereo not given) | 89 to 90
28 | CCCCn1ccc(Cc2cnc(NCCCCc3ncc(Br)cc3N)[nH]c2=O)cc1=O | 140 to 150
29 | COc1cc(N)c(F)cc1Br | 60 to 62
30 | O=C(O)c1cc(NCc2c(F)c(F)c(C(F)(F)F)c(F)c2F)ccc1Cl | 58
31 | Cc1ccccc1C1NS(=O)(=O)c2ccccc21 (single isomer, unassigned; (+)) | 109 to 111
32 | CCc1c(Sc2cc(Cl)cc(Cl)c2)c(CO)nn1CCO | 89 to 90
33 | O=C(NCCCCN1C2CCC1CN(c1ccc(Cl)cc1)C2)C(F)(F)F | 83 to 85
34 | CS(=O)(=O)C(=[N+]=[N-])C(=O)CCc1ccccc1 | 52.5 to 54
35 | O=C1CCC(C(=O)O)(c2ccc(F)cc2)CC1 | 117 to 122
36 | COC(=O)C(C)=Cc1cc(NC(=S)N2CCCCN2)ccc1Cl | 120 to 121
37 | CCOC(=O)c1nnc2n1-c1ccccc1C(c1ccccc1Cl)=NC2 | 235 to 237
38 | COC(=O)c1ccc(N2C(=O)CCC2(CO)CCO)c([N+](=O)[O-])c1 (stereo not given) | 151 to 153
39 | CCc1cc(=O)n(CCC(C(=O)NO)N(C)S(=O)(=O)c2ccc(Oc3ccccc3)cc2)c(=O)[nH]1 (stereo not given) | 177 to 179
40 | Clc1ccc(C=C(OC2CCCCC2)n2cncn2)c(Cl)c1 | 84

Row | SMILES | melting point [°C]
41 | N#Cc1ccc(-c2cn(-c3ccc(Br)cc3)c(SCc3cccnc3)n2)cc1 | 177 to 178
42 | O=C1CCc2ncc3c(c21)CCO3 | 148 to 149
43 | NC(=O)N1C(=O)C(=C(OC(=O)c2ccncc2)c2cccs2)c2cc(F)c(Cl)cc21 | 220 to 221
44 | CCOC(=O)c1ccc(SC)cn1 | 44 to 46
45 | CCC(C(CC(=O)OC)c1ccc2c(c1)OCO2)[N+](=O)[O-] (stereo not given) | 185 to 189
46 | O=C(NCCNC(c1ccccc1)(c1ccccc1)c1ccccc1)C(CCO)NC(c1ccccc1)(c1ccccc1)c1ccccc1 (stereo not given) | 71 to 72
47 | CC(C)(C)OC(=O)N1CCC2(CC1)NC(=O)N(CC(O)CO)C2=O (stereo not given) | 167 to 170
48 | Cc1cc(C)c(C)c(P(=O)(c2ccc(F)cc2)c2ccc(F)cc2)c1C | 171 to 173
49 | CC1OC(c2cc(-n3c(=O)cc(C(F)(F)F)n(C)c3=O)ccc2Cl)OC1C (stereo not given) | 149 to 151
50 | O=C1CCCN1Cc1ccc2ccn(C3CCN(CCc4ccc(F)cc4)CC3)c2c1 | 106 to 108
51 | O=C(NC(Cc1ccccc1)C(=O)C(F)(F)F)c1ccccc1 (racemic) | 148 to 157
52 | CC(C)(CON=Cc1ccccc1Cl)C(=O)O | 78 to 80
53 | COc1cc2c(cc1F)CC(C)C2=O (stereo not given) | 76 to 78
54 | CCOC(=O)c1nc(NC)sc1-c1ccccn1 | 120 to 121
55 | O=c1c(CCl)csc2ccc3ccccc3c12 | 151 to 153
56 | CNc1cc(Oc2ccc(Cl)cc2Cn2ccnc2)ccc1[N+](=O)[O-] | 130
57 | CNc1cc(NC)cc(C(=O)CS(C)(=O)=O)c1 | 144 to 146
58 | Cn1nnnc1-c1cn(C)c2cc(Cl)c(F)cc2c1=O | 264 to 267
59 | CCNC(=O)CC(Cc1cccc2ccccc12)C(=O)NC(Cc1c[nH]cn1)C(=O)NC(CC(C)C)C(O)C(=O)OC (mixture of isomers) | 103 to 108
60 | CC(C#N)(CNC(=O)c1nn(C2CCCCO2)cc1NC(=O)c1ccccn1)Cc1ccccc1 (stereo not given) | 187 to 190

Now from value to molecule:

Row | melting point [°C] | SMILES
61 | 227 to 229 | Cn1cc2c(OCC3COC(Cn4ccnc4)(c4ccc(Cl)cc4Cl)O3)cc(-c3ccccc3)nc2n1 (stereo not given)
62 | 135 to 137 | COc1ccc(-c2c(C(=O)CC(C)C)c(C)nc3cc(OC)c(OC)cc23)cc1OC
63 | 209 to 212 | CS(=O)(=O)N1CCC(c2nc3cc(-c4ccc(-n5cnnn5)cc4F)ccc3o2)CC1
64 | 159 to 161 | Nc1nc2ccccc2c2c1ncn2CCCCNC(=O)c1ccc(C(=O)c2ccccc2)cc1
65 | 121 to 124 | C=CCn1ncc2cc3ncc(-c4ccc(OC)c(F)c4)nc3cc21
66 | 169 to 172 | COc1ccccc1-c1c(C)c(C)c2cnc(Nc3ccc(N4CCOCC4)cc3)nn12
67 | 260 to 262 | O=C(O)c1cc(O)cc2cc(-c3ccc(O)cc3)oc12
68 | 218 to 220 | COc1cc(CC(=O)O)ccc1N(C(N)=O)c1ccccc1C(F)(F)F
69 | 163 to 164 | Cc1noc(-c2sc(N3CCN(Cc4ccc(C(F)(F)F)cc4)C3=O)nc2C)n1
70 | 222 to 224 | COc1ccc(-c2nn(C(C)c3oc4ccccc4c(=O)c3-c3cccc(F)c3)c3ncnc(N)c23)cc1F (stereo not given)
71 | 127 to 129 | CC(=O)NS(=O)(=O)c1ccc(C2=C(c3ccc(F)c(Cl)c3)CCC2)cc1
72 | 85 to 100 | CC(C)(C)OC(=O)CC(NC(=O)C1CCCN2C(=O)CCC(NS(C)(=O)=O)C(=O)N12)C(=O)COC(=O)c1ccccc1Oc1ccccc1 (stereo not given)
73 | 251 to 252 | Cn1cc(-c2ccc3nc(NC(=O)c4ccc(C(C)(C)C)nc4)cn3n2)cn1
74 | 150 to 151 | O=C(NCc1ccc(F)cc1)c1ccnc(N2CCN(CC3CC3)C2=O)c1
75 | 200 to 202 | CC(C)c1ccc(N(Cc2ccc(N(C)C)cc2)C(=O)C2CCCc3c(O)cccc32)cc1 (stereo not given)
76 | 188 to 189 | O=C(O)CC1CCCc2c1n(Cc1cccc(Cl)c1)c1c(F)cc(F)cc21 (stereo not given)
77 | 160 | O=S1(=O)c2cccc3cccc(c23)N1CCN1CCC(=Cc2cc3cc(F)ccc3[nH]2)CC1
78 | 227 | CCOC(=O)c1c(N2CCN(C(=O)c3cccs3)CC2)c2cscc2n(Cc2ccc(F)cc2)c1=O

Row | melting point [°C] | SMILES
79 | 156 to 157 | CCCN(CCC)C(=O)Cn1c(-c2ccc(Cl)cc2)nc2cccnc21
80 | 189 to 192 | Cc1c(F)c(N2CCNC(C)C2)cc2c1c(=O)c(C(=O)O)cn2C1CC1 (stereo not given)
81 | 195 to 196 | COc1cc2c(c3c1OC(C)(C)C3)C(c1ccc(=O)[nH]c1)=NC(C)(C)C2
82 | 306 | COc1cc(C(=O)c2ncc3ccc(C(=O)O)cn23)ccc1N
83 | 184 | O=C(CN1CCN(C(c2ccc(F)cc2)c2ccc(F)cc2)CC1)NC1(C(=O)O)Cc2ccc(-c3ccc(Cl)cc3)cc2C1 (stereo not given)
84 | 136 to 138 | CC1CCN(CCCC(=O)c2ccc3sc4ccc(C(=O)CCCN5CCC(C)CC5)cc4c3c2)CC1
85 | 90 to 93 | CN1CCN(c2ccc(S(=O)(=O)c3ccccc3)c(N)c2)CC1
86 | 77 to 80 | Fc1cc(I)ccc1Nc1c(-c2nnc(NCCN3CCOCC3)o2)ccc(F)c1F
87 | 193 to 196 | CN1C2CCCC1CC(NC(=O)c1cccc3nc(-c4ccc(Cl)cc4)oc13)C2 (stereo not given)
88 | 142 to 143 | COc1ccc(/C=C/c2ccccc2[N+](=O)[O-])c([N+](=O)[O-])c1
89 | 190 to 194 | COc1ccc(N2Cc3nc(CO)nn3-c3cccnc32)cc1
90 | 237 to 238 | COc1cc2nc(N3CCN(C(=O)C=Cc4ccc(C(C)C)cc4)CC3)nc(N)c2cc1OC
91 | 183 | Cc1cccc(-c2nc3c(C)cccn3c2-c2ccnc(-c3ccc(OCC(N)=O)cc3)c2)n1
92 | 99.2 | CCC(=S)C1Cc2c(OC)ccc(OC)c2CO1 (stereo not given)
93 | 151 to 155 | Nc1ccc(Sc2cc(F)ccc2CC(=O)O)cc1
94 | 270 | O=c1c2ccc(-c3nnn[nH]3)cc2oc2ccc(OCCCO)cc12
95 | 123 to 125 | CC(C)c1cccc(C(C)C)c1NC(=O)CN1CCN(CCCSc2nc3ccccc3o2)CC1
